Reference: the NIST ThermoML archive (doi:10.1016/j.jct.2018.09.027)

Test: molar heat capacity at constant pressure
Details: 100 kPa, Crystal, DSC

O=c1oc2c(O)c(O)cc3c(=O)oc4c(O)c(O)cc1c4c23 [2,3,7,8-tetrahydroxychromeno[5,4,3-cde]chromene-5,10-dione]
Details	molar heat capacity at constant pressure [J/K/mol]
260.15 K	292.07
261.15 K	292.68
262.15 K	293.58
263.15 K	294.64
264.15 K	295.85
265.15 K	297.06
266.15 K	297.97
267.15 K	298.87
268.15 K	299.93
269.15 K	301.59
270.15 K	303.41
271.15 K	303.41
272.15 K	304.01
273.15 K	305.37
274.15 K	307.49
275.15 K	308.39
276.15 K	308.09
277.15 K	308.54
278.15 K	310.36
279.15 K	311.57
280.15 K	311.26
281.15 K	312.62
282.15 K	314.29
283.15 K	315.19
284.15 K	315.95
285.15 K	316.25
286.15 K	317.16
287.15 K	318.97
288.15 K	320.33
289.15 K	319.72
290.15 K	320.48
291.15 K	321.84
292.15 K	323.35
293.15 K	323.05
294.15 K	324.26
295.15 K	325.47
296.15 K	326.4
297.15 K	327.73
298.15 K	328.85
299.15 K	329.64
300.15 K	330.7
301.15 K	331.91
302.15 K	332.12
303.15 K	333.63
304.15 K	334.99
305.15 K	335.69
306.15 K	336.45
307.15 K	337.53
308.15 K	338.02
309.15 K	339.27
310.15 K	339.49
311.15 K	340.77
312.15 K	341.16
313.15 K	342.26
314.15 K	343.3
315.15 K	343.78
316.15 K	345.03
317.15 K	346.85
318.15 K	347.5
319.15 K	348.3
320.15 K	349.21
321.15 K	350.81
322.15 K	351.92
323.15 K	352.53
324.15 K	353.13
325.15 K	354.43
326.15 K	355.55
327.15 K	356.86
328.15 K	357.07
329.15 K	358.38
330.15 K	359.69
331.15 K	361.39
332.15 K	362.3
333.15 K	363.1
334.15 K	364.21
335.15 K	365.02
336.15 K	366.23
337.15 K	367.13
338.15 K	368.24
339.15 K	369.55
340.15 K	370.36
341.15 K	370.96
342.15 K	371.07
343.15 K	372.48
344.15 K	373.08
345.15 K	373.69
346.15 K	374.1
347.15 K	375.31
348.15 K	376.31
349.15 K	377.02
350.15 K	378.82
351.15 K	379.03
352.15 K	379.54
353.15 K	381.35
354.15 K	383.99
355.15 K	385.91
356.15 K	385.3
357.15 K	386.51
358.15 K	387.62
359.15 K	388.02
360.15 K	390.04
361.15 K	391.3
362.15 K	392.55
363.15 K	393.1
364.15 K	393.5
365.15 K	394.2
366.15 K	395.1
367.15 K	396
368.15 K	396.5
369.15 K	397.3
370.15 K	397.8
371.15 K	398
372.15 K	399.5
373.15 K	400.1
374.15 K	401.2
375.15 K	402.5
376.15 K	403.1
377.15 K	403.8
378.15 K	404.5
379.15 K	405.3
380.15 K	406.12
381.15 K	407.6
382.15 K	408.2
383.15 K	409.5
384.15 K	410.1
385.15 K	411.31
386.15 K	412.22
387.15 K	413.52
388.15 K	414.82
389.15 K	415.43
390.15 K	416.64
